Laboratory results published in patent US20080269213A1, “8-Hydroxyquinoline compounds and methods thereof” (Wyeth, priority 2006, published 2008).

How the values were obtained:
[1] = target: T1, recombinant human Aggrecanase-2 Agg2-Phe628 (Homo sapiens, UniProt Q9UNA0); test: Aggrecanase 2 in vitro enzyme assay (Agg-2 FRET, quenched fluorescent peptide substrate); assay type: biochemical; set-up: purified recombinant human Aggrecanase-2 Agg2-Phe628 (MW=41,737); This is a truncated form of full-length human aggrecanase-2; made in house; host or cells: CHO cells; conditions: established value of positive control; read-out: IC50 for rAgg-2
T1 sequence (Q9UNA0 262-628 limits assumed): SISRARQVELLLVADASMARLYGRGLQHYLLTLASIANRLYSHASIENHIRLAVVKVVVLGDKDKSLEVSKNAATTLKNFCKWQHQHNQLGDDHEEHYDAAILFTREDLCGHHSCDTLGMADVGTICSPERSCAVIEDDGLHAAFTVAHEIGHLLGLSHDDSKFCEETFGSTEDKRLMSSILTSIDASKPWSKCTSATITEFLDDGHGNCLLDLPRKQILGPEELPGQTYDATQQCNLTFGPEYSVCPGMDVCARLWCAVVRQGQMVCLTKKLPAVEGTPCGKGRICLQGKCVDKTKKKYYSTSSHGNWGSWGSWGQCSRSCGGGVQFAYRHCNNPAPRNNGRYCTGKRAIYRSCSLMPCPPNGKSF
Method in brief: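 Continuous FRET assay with purified truncated human Aggrecanase-2 Agg2-Phe628 (CHO-expressed, 0.5 μg/ml final) and brevican-derived Abz/Dnp peptide (25 μM final) in 50 mM HEPES pH 7.5, 100 mM NaCl, 5 mM CaCl2, 0.1% CHAPS, 5% glycerol. Enzyme preincubated with compound before substrate; fluorescence (ex 340/em 420 nm) followed kinetically 40 min at 30 °C.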

[2] = target: T1, recombinant human Aggrecanase-2 Agg2-Phe628; test: Aggrecanase 2 enzyme fluorescence polarization assay; assay type: binding; set-up: recombinant human Aggrecanase-2, Agg2-Phe628 (41737 Da); This is a truncated form of full-length human aggrecanase-2; made in house
Excerpt: The fluorescence polarization assay is used to determine the dissociation constant of the enzyme:inhibitor complex (Ki) and the binding interaction mode (competitive, non-competitive or uncompetitive) of reversible inhibitors. The fluorescence polarization assay monitors the rotational motion of the fluorescent ligand. In the free state the fluorescent ligand has high rotational motion corresponding to a low polarization value and when fully bound to the protein, the fluorescent ligand has a lower rotational motion, corresponding to a higher polarization value. […]
Stock solutions of the fluorescent ligand are prepared in 100% DMSO and aliquots are stored at −80° C. The stock concentration was determined by a NMR ratio method, comparing the area under the control compound peak (TSP; trimethyl silyl proprionate sodium salt) to the area under a well-defined sample peak.
To determine the dissociation constant between Aggrecanase-2 and Compound C, saturation experiments were performed by adding various concentrations of aggrecanase to a constant concentration of Compound C (2 nM), in the assay buffer 50 mM HEPES-NaOH (pH 7.4), 100 mM NaCl, 5 mM CaCl2, 0.005% Brij-35. Anisotropy values were calculated and converted to fraction bound values as described in the data analysis section below. […] The equilibrium dissociation constant was determined to be 60+/−2.9 nM. […]

Compound	IC50 [1] [nM]	Ki ([2]; established value of positive control, read-out: Ki for rAgg-2) [nM]	Kd ([2]; saturation experiment, 2 nM ligand, read-out: equilibrium dissociation constant between Aggrecanase-2 and fluorescent ligand) [nM]
CN([C@H](CCCCNC(=O)OC(C)(C)C)C(=O)NO)S(=O)(=O)c1ccc(OCc2ccccc2)cc1 [Compound B, reference compound]	37	39	
CN([C@H](CCCCCNC(=O)c1ccc(-c2c3cc(F)c(=O)cc-3oc3cc(O)c(F)cc23)c(C(=O)O)c1)C(=O)NO)S(=O)(=O)c1ccc(OCc2ccccc2)cc1 [Compound C]			60
